Data published in patent US20200223837A1, “BENZOFURAN AMIDES AND HETEROAROMATIC ANALOGUES THEREOF FOR USE IN THERAPY” (European Molecular Biology Laboratory, priority 2017, published 2020).
pEC50: −log10 of the molar value. Where a name gives a salt, the structure may show the parent alone.

The molecules below were run on EGR1 promoter (assay: EGR1 reporter assay (luciferase) in genomically engineered HeLa cell line). Conditions: Homo sapiens; EGR1 reporter HeLa cells, luciferase activity after 24 hours with compound.
Type: cell-based
Description: The compounds of the present invention can be characterized for their effect on expression of egr1 (early growth response protein 1) using an EGR1 reporter cell line.
The HeLa cell line was genetically modified to provide a simple, robust and highly reproducible cell-based assay reporting the activity of an endogenous EGR1 promoter. In brief, a construct encoding EGFP and luciferase proteins, separated by a self-cleaving P2A peptide was inserted, using CRISPR, immediately downstream (3′) to the promoter of endogenous EGR1. Upon treatment with compounds, cells express EGFP and luciferase from EGR1 promoter, which can be readily detected either in live cells using microscopy or cytometry, or through detection of luciferase activity in cell lysates.
To achieve stable genomic integration of an EGR1-promoter dual reporter, two plasmids were generated: one contained the reporter construct (eGFP-P2A-luciferase) flanked by homology arms that direct insertion into genomic DNA, by homologous recombination, of a break in genomic DNA generated by guide RNA targeted cleavage by Cas9 endonuclease. The gRNA expressing plasmid was based on px330 (56), into which a gRNA sequence that targets a break in gDNA close to the start codon of EGR1 was cloned. The left homology arm (encoding part of EGR1 promoter adjacent to its start codon) and right homology arm (encoding […] of start codon of EGR1) were cloned from gDNA using the following primers: […]
The present compounds can be tested, e.g. by using a HeLa cell line carrying an EGR1 reporter construct which allows for expression of luciferase and eGFP (enhanced GFP) controlled by the EGR1 promoter. For this reporter cells are seeded in the wells of a 384 well microtiter plate at a density of 2000 cells per well in 48 μl of DMEM supplemented with 4.5 g/l glucose, 2 mM glutamine and 10% FCS and are incubated for 24 hours at 37° C. with 5% CO2 and 95% humidity. Then, an eleven point 1:3 serial dilution of each test compound, from an initial concentration of 100 μM, is prepared in DMSO and the dilutions are added to the cells in a volume of 2 μl per well. The cells are incubated for a further 24 hours, after which the luciferase activity of each well is determined by addition of 25 μl of luciferase substrate reaction mixture (Britelite™ plus, Perkin Elmer) and measuring the bioluminescence light output (EnVision Xcite plate reader, PerkinElmer).
The compound of example 64 served as a positive control for this EGR1 reporter assay. The compound of example 64 had been identified in an initial high throughput screening campaign.

SMILES	pEC50
CCc1ccc2c(CC(=O)Nc3nc(-c4ccc(CNC(C)=O)cc4)cs3)coc2c1 [Example 30, N-[4-[4-(Acetamidomethyl)phenyl]thiazol-2-yl]-2-(6-ethylbenzofuran-3-yl)acetamide]	5.00 to 8.00
COc1ccc(OC)c(-c2csc(NC(=O)Cc3coc4cc(OC)ccc34)n2)c1 [Example 14, N-[4-(2,5-Dimethoxyphenyl)thiazol-2-yl]-2-(6-methoxybenzofuran-3-yl)acetamide]	4.00 to 5.00
O=C(CCc1coc2ccccc12)Nc1ncc(C(F)(F)F)s1 [Example 44, 3-(Benzofuran-3-yl)-N-[5-(trifluoromethyl)thiazol-2-yl]propanamide]	5.00 to 8.00
NC(=O)c1cnc(NC(=O)Cc2coc3cc4c(cc23)CCC4)s1 [Example 18, 2-[[2-(6,7-Dihydro-5H-cyclopenta[f]benzofuran-3-yl)acetyl]amino]thiazole-5-carboxamide]	4.00 to 5.00
Cc1ccc2c(CCC(=O)Nc3ncc(C(F)(F)F)s3)coc2c1C [Example 61, 3-(6,7-Dimethylbenzofuran-3-yl)-N-[5-(trifluoromethyl)thiazol-2-yl]propanamide]	5.00 to 8.00
COc1ccc2c(CC(=O)N(c3ccc(C(C)=O)cc3)c3nc4ccccc4s3)coc2c1 [Example 68, N-(4-Acetylphenyl)-N-(1,3-benzothiazol-2-yl)-2-(6-methoxybenzofuran-3-yl)acetamide]	5.00 to 8.00
COc1ccc(-c2csc(NC(=O)Cc3coc4cc(C)ccc34)n2)cc1Cl [Example 67, N-[4-(3-Chloro-4-methoxy-phenyl)thiazol-2-yl]-2-(6-methylbenzofuran-3-yl)acetamide]	5.00 to 8.00
Cc1ccc2c(CC(=O)Nc3nccs3)coc2c1 [Example 42, 2-(6-Methylbenzofuran-3-yl)-N-thiazol-2-yl-acetamide]	5.00 to 8.00
COc1ccc2c(CC(=O)Nc3nc(C)cs3)coc2c1 [Example 12, 2-(6-Methoxybenzofuran-3-yl)-N-(4-methylthiazol-2-yl)acetamide]	4.00 to 5.00
C=CCN(C(=O)Cc1coc2cc(C)ccc12)c1nc(-c2ccc(S(C)(=O)=O)cc2)cs1 [Example 70, N-Allyl-2-(6-methylbenzofuran-3-yl)-N-[4-(4-methylsulfonylphenyl)thiazol-2-yl]acetamide]	5.00 to 8.00
CC(=O)NCc1ccc(-c2csc(NC(=O)Cc3coc4cc5c(cc34)CCC5)n2)o1 [Example 19, N-[4-[5-(Acetamidomethyl)-2-furyl]thiazol-2-yl]-2-(6,7-dihydro-5H-cyclopenta[f]benzofuran-3-yl)acetamide]	4.00 to 5.00
Cc1cnc(NC(=O)Cc2coc3cc4c(cc23)OCO4)s1 [Example 34, 2-Furo[3,2-f][1,3]benzodioxol-7-yl-N-(5-methylthiazol-2-yl)acetamide]	5.00 to 8.00
Cc1cnc(NC(=O)Cc2coc3cc(Cl)ccc23)s1 [Example 15, 2-(6-Chlorobenzofuran-3-yl)-N-(5-methylthiazol-2-yl)acetamide]	4.00 to 5.00
Cc1cnc(NC(=O)Cc2coc3cc(C)c(C)cc23)s1 [Example 45, 2-(5,6-Dimethylbenzofuran-3-yl)-N-(5-methylthiazol-2-yl)acetamide]	5.00 to 8.00
Cc1ccc2c(CC(=O)Nc3ncc(C(F)(F)F)[nH]3)coc2c1Cl [Example 58, 2-(7-Chloro-6-methyl-benzofuran-3-yl)-N-[5-(trifluoromethyl)-1H-imidazol-2-yl]acetamide]	5.00 to 8.00
Cc1ccc2c(CC(=O)Nc3ncc(C(F)(F)F)[nH]3)coc2c1C [Example 55, 2-(6,7-Dimethylbenzofuran-3-yl)-N-[5-(trifluoromethyl)-1H-imidazol-2-yl]acetamide]	5.00 to 8.00
Cc1cc2occ(CC(=O)N(c3ccc(F)cc3)c3nc4ccccc4s3)c2cc1C(C)C [Example 16, N-(1,3-Benzothiazol-2-yl)-N-(4-fluorophenyl)-2-(5-isopropyl-6-methyl-benzofuran-3-yl)acetamide]	4.00 to 5.00
CCc1ccc2c(CC(=O)N(c3ccc(C(C)=O)cc3)c3nc4ccccc4s3)coc2c1 [Example 69, N-(4-Acetylphenyl)-N-(1,3-benzothiazol-2-yl)-2-(6-ethylbenzofuran-3-yl)acetamide]	5.00 to 8.00
Cc1ccc2c(CC(=O)Nc3nc(-c4ccncc4)cs3)coc2c1 [Example 31, 2-(6-Methylbenzofuran-3-yl)-N-[4-(4-pyridyl)thiazol-2-yl]acetamide]	5.00 to 8.00
N#Cc1cnc(NC(=O)Cc2coc3cc(Cl)ccc23)s1 [Example 46, 2-(6-Chlorobenzofuran-3-yl)-N-(5-cyanothiazol-2-yl)acetamide]	5.00 to 8.00
Cc1ccc2c(CC(=O)Nc3nc(-c4cccs4)cs3)coc2c1 [Example 27, 2-(6-Methylbenzofuran-3-yl)-N-[4-(2-thienyl)thiazol-2-yl]acetamide]	5.00 to 8.00
COc1ccc2c(CC(=O)Nc3nc(-c4ccccn4)cs3)coc2c1 [Example 26, 2-(6-Methoxybenzofuran-3-yl)-N-[4-(2-pyridyl)thiazol-2-yl]acetamide]	5.00 to 8.00
O=C(Cc1coc2c(F)c(F)ccc12)Nc1ncc(C(F)(F)F)s1 [Example 39, 2-(6,7-Difluorobenzofuran-3-yl)-N-[5-(trifluoromethyl)thiazol-2-yl]acetamide]	5.00 to 8.00
COc1ccc2c(CC(=O)Nc3ncc(C)s3)coc2c1 [Example 43, 2-(6-Methoxybenzofuran-3-yl)-N-(5-methylthiazol-2-yl)acetamide]	5.00 to 8.00
COc1ccc(OC)c(-c2csc(NC(=O)Cc3coc4cc(C)ccc34)n2)c1 [Example 11, N-[4-(2,5-Dimethoxyphenyl)thiazol-2-yl]-2-(6-methylbenzofuran-3-yl)acetamide]	4.00 to 5.00

The next lines start with the values.

pEC50	SMILES
4.00 to 5.00	Cc1cnc(NC(=O)Cc2coc3ncccc23)s1 [Example 104, 2-(Furo[2,3-b]pyridin-3-yl)-N-(5-methylthiazol-2-yl)acetamide]
5.00 to 8.00	Cc1cnc(NC(=O)Cc2coc3c(C)c(Cl)ccc23)s1 [Example 92, 2-(6-Chloro-7-methyl-benzofuran-3-yl)-N-(5-methylthiazol-2-yl)acetamide]
5.00 to 8.00	COc1ccc2c(CC(=O)Nc3nc(-c4ccc5c(c4)CCO5)cs3)coc2c1 [Example 74, N-[4-(2,3-Dihydrobenzofuran-5-yl)thiazol-2-yl]-2-(6-methoxybenzofuran-3-yl)acetamide]
5.00 to 8.00	Cc1ccc2c(CC(=O)N(c3ccc(SC(F)F)cc3)c3nc4ccccc4s3)coc2c1 [Example 102, N-(1,3-Benzothiazol-2-yl)-N-[4-(difluoromethylsulfanyl)phenyl]-2-(6-methylbenzofuran-3-yl)acetamide]
5.00 to 8.00	COc1ccc2c(CC(=O)Nc3ncc(C(F)(F)F)s3)coc2c1C [Example 91, 2-(6-Methoxy-7-methyl-benzofuran-3-yl)-N-[5-(trifluoromethyl)thiazol-2-yl]acetamide]
5.00 to 8.00	COc1c(C)ccc2c(CC(=O)Nc3ncc(C)s3)coc12 [Example 86, 2-(7-Methoxy-6-methyl-benzofuran-3-yl)-N-(5-methylthiazol-2-yl)acetamide]
5.00 to 8.00	Cc1ccc2c(CC(=O)N(c3ccc(SC(F)F)cc3)c3nc4ccccc4s3)coc2c1C [Example 82, N-(1,3-Benzothiazol-2-yl)-N-[4-(difluoromethylsulfanyl)phenyl]-2-(6,7-dimethylbenzofuran-3-yl)acetamide]
5.00 to 8.00	COc1ccc(-c2csc(NC(=O)Cc3coc4cc(OC)ccc34)n2)cc1 [Example 71, 2-(6-Methoxybenzofuran-3-yl)-N-[4-(4-methoxyphenyl)thiazol-2-yl]acetamide]
5.00 to 8.00	Cc1cnc(NC(=O)Cc2coc3c(Cl)c(Cl)ccc23)s1 [Example 75, 2-(6,7-Dichlorobenzofuran-3-yl)-N-(5-methylthiazol-2-yl)acetamide]
5.00 to 8.00	Cc1ccc2c(CC(=O)Nc3ncc(C(C)C)s3)coc2c1C [Example 95, 2-(6,7-Dimethylbenzofuran-3-yl)-N-(5-isopropylthiazol-2-yl)acetamide]
5.00 to 8.00	NCc1ccc(-c2csc(NC(=O)Cc3coc4cc5c(cc34)CCC5)n2)o1 [Example 100, hydrochloride salt]
5.00 to 8.00	COc1ccc2c(CC(=O)Nc3nc(-c4ccc5c(c4)OCO5)cs3)coc2c1 [Example 78, N-[4-(1,3-Benzodioxol-5-yl)thiazol-2-yl]-2-(6-methoxybenzofuran-3-yl)acetamide]
5.00 to 8.00	Cc1ccc2c(CC(=O)Nc3ncc(C(F)(F)F)s3)coc2c1C [Example 99, 2-(6,7-Dimethylbenzofuran-3-yl)-N-[5-(trifluoromethyl)thiazol-2-yl]acetamide]
